Data from ChEMBL document CHEMBL4138276, “Hamigerans R and S: Nitrogenous Diterpenoids from the New Zealand Marine Sponge Hamigera tarangaensis” (J Nat Prod, 2018).
The source made the active and inactive calls. The rule behind the calls is not given here.

Tested on: HL-60
Experiment: Cytotoxicity against human HL60 cells assessed as inhibition of cell proliferation at <10 uM after 48 hrs by MTT assay
Type: functional, cell-based

| Compound | inhibition |
| --- | --- |
| Cc1cc(O)c2c(c1)[C@H]1[C@@H](C(C)C)CC[C@@]1(C)[C@@H](O)[C@H](O)C2=O | inactive |
| COC(=O)[C@]1(O)C(=O)c2c(O)c(Br)c(C)c(Br)c2[C@H]2[C@@H](C(C)C)CC[C@]21C | inactive |
| Cc1cc2c3c(c1Br)O[C@]14N[C@]3(Oc3c(Br)c(C)cc(c31)[C@H]1[C@@H](C(C)C)CC[C@@]1(C)CC4=O)C(=O)C[C@]1(C)CC[C@H](C(C)C)[C@H]21 | inactive |
| COC(=O)c1c([C@H]2[C@@H](C(C)C)CC[C@@]2(C)CC(=O)O)cc(C)c(Br)c1O | inactive |
| Cc1cc(O)c2c(c1)[C@H]1[C@@H](C(C)C)CC[C@@]1(C)C(=O)C2=O | inactive |
| Cc1cc([C@H]2[C@@H](C(C)C)CC[C@@]2(C)CC(=O)O)c(C#N)c(O)c1Br | inactive |
| COC(=O)[C@@]1(O)C(=O)[C@]2(C)CC[C@H](C(C)C)[C@@H]2c2cc(C)cc(O)c21 | inactive |
